Source: US20100173888A1 (Pfizer Inc, priority 2008, published 2010)
Structures can show the parent of a compound that is named as a salt.

Target: human recombinant H-PGDS (Homo sapiens, UniProt O60760)
Experiment: Fluorescence intensity h-PGDS TBA enzyme assay (PGH2 depletion, MDA/TBA fluorescence)
Format: biochemical
Conditions: 1:175,000 human recombinant H-PGDS, 42 second reaction, 3-fold serial dilutions, highest concentration typically 1 μM
Description: Fluoresecence Intensity h-PGDSTBA Enzyme Assay
Prostaglandin D Synthase (PGDS) converts the substrate prostaglandin H2 (PGH2) to prostaglandin D2. The depletion of PGH2 was measured via an Fe(II) reduction of the remaining PGH2 to malondialdehyde (MDA) and 12-HHT. The enzyme assay is based on the quantitative formation of a fluorescent complex from the non-fluorescent compounds MDA and 2-thiobarbituric acid (TBA), substantially as described in U.S. patent application publication US-2004/152148 by Lombardt.
The enzyme assay (31 μls) contained 100 mM Tris base pH 8.0, 100 μM MgCl2, 0.1 mg/ml IgG Rabbit serum, 5.0 μM PGH2 (Cayman; ethanol solution, #17020), 2.5 mM L-Glutathione (Sigma; reduced form. #G4251), 1:175,000 human recombinant H-PGDS (from 1 mg/ml), 0.5% DMSO and inhibitor (varying concentration). Three μls of diluted inhibitor (dissolved in DMSO) was plated into a 384-well assay plate followed by a 25 μl addition of an enzyme solution containing h-PGDS, Tris, MgCl2, IgG and L-Glutathione. After preincubation of inhibitor and enzyme solution for 10 minutes at room temperature, the reaction was initiated with a 3 μl addition of substrate solution in 10 mM HCl. The reaction was terminated after 42 second by the addition (3 μl) of stop buffer containing FeCl2 and citric acid. After addition of 45.5 μls of TBA plates were heated for one hour in a 70° C. oven. Plates were cooled at room temperature overnight and read on a plate reader the next day with excitation @ 530 nm and emission @ 565 nm.
IC50' s of inhibitors were calculated with a 4-parameter fit using 11 inhibitor concentrations in duplicate with 3-fold serial dilutions. Controls on each plate included no inhibitor (zero % effect) and an inhibitor 10-fold in excess of its' IC50 (100% effect). The highest inhibitor concentration tested was typically 1 μM.

human recombinant H-PGDS, sequence (O60760 whole entry): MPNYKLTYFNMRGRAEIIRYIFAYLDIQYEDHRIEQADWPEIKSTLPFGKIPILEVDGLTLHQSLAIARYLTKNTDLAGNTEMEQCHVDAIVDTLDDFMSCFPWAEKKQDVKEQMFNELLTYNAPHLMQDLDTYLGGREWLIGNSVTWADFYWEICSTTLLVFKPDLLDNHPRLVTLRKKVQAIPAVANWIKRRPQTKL

| IC50 | Compound |
| --- | --- |
| 10.3 nM | O=C(NC1CCC(O)(C(F)(F)F)CC1)c1ccc(-c2cccc(F)c2)nc1 (mixture of isomers) [Example 151, 6-(3-Fluorophenyl)-N-(trans 4-hydroxy-4-trifluoromethylcyclohexyl)nicotinamide and 6-(3-Fluorophenyl)-N-(cis 4-hydroxy-4-trifluoromethylcyclohexyl)nicotinamide] |
| 60 nM | CCN1CCC(CNC(=O)[C@H]2CC[C@H](NC(=O)c3ccc(-c4cccc(F)c4)nc3)CC2)C1 (relative stereo) [Example 113F, N-(trans-4-{[(1-ethylpyrrolidin-3-yl)methyl]carbamoyl}cyclohexyl)-6-(3-fluorophenyl)nicotinamide] |
| 68.9 nM | O=C(N[C@H]1CC[C@@H](O)C1)c1ccc(-c2cccc(F)c2)nc1 (relative stereo) [Example 158, 6-(3-fluorophenyl)-N-[cis-3-hydroxycyclopentyl]nicotinamide] |
| 13.7 nM | CNCCNC(=O)[C@H]1CCC[C@@H](NC(=O)c2ccc(-c3cccc(F)c3)nc2)C1 (relative stereo) [Example 189, 6-(3-Fluorophenyl)-N-cis-3-{([2-(methylamino)ethyl]carbamoyl}cyclohexyl]nicotinamide] |
| 29.2 nM | O=C(N[C@@H]1CCC[C@H](C(=O)NC2CCNCC2)C1)c1ccc(-c2cccc(F)c2)nc1 (relative stereo) [Example 191, 6-(3-Fluorophenyl)-N-cis-3-(piperidin-4-ylcarbamoyl)cyclohexyl]nicotinamide hydrochloride] |
| 9.6 nM | CC(C)(CO)NC(=O)[C@H]1CCC[C@@H](NC(=O)c2ccc(-c3cccc(F)c3)nc2)C1 (relative stereo) [Example 196] |
| 19.1 nM | CN(C)C(=O)CNC(=O)[C@H]1CCC[C@@H](NC(=O)c2ccc(-c3cccc(F)c3)nc2)C1 (relative stereo) [Example 198] |
| 21.8 nM | CC(O)[C@H]1CCC[C@@H](NC(=O)c2ccc(-c3cccc(F)c3)nc2)C1 (relative stereo) [Example 199, 6-(3-Fluorophenyl)-N-[(cis)-3-(1-hydroxyethyl)cyclohexyl]nicotinamide] |
| 189 nM | N[C@@H]1CCC[C@H](NC(=O)c2ccc(-c3cccc(F)c3)nc2)C1 (relative stereo) [Example 200, N-[cis-3-Aminocyclohexyl]-6-(3-fluorophenyl)nicotinamide] |
| 17.1 nM | O=C(CO)N[C@@H]1CCC[C@H](NC(=O)c2ccc(-c3cccc(F)c3)nc2)C1 (relative stereo) [Example 202] |
| 17.1 nM | COCC(=O)N[C@@H]1CCC[C@H](NC(=O)c2ccc(-c3cccc(F)c3)nc2)C1 (relative stereo) [Example 203, 6-(3-Fluorophenyl)-N-cis-[3-(2-methoxyacetylamino)cyclohexyl]nicotinamide] |
| 68.7 nM | CN1CCN(CC(=O)N[C@@H]2CCC[C@H](NC(=O)c3ccc(-c4cccc(F)c4)nc3)C2)CC1 (relative stereo) [Example 204] |
| 81.1 nM | CS(=O)(=O)N[C@@H]1CCC[C@H](NC(=O)c2ccc(-c3cccc(F)c3)nc2)C1 (relative stereo) [Example 207, 6-(3-Fluoro-phenyl)-N-cis-(3-methanesulfonylamino-cyclohexyl)-nicotinamide] |
| 67.1 nM | CN1CCCCC1C(=O)N[C@H]1CC[C@@H](NC(=O)c2ccc(-c3cccc(F)c3)nc2)CC1 (relative stereo) [Example 217, 6-(3-fluorophenyl)-N-(cis-4-{[(1-methylpiperidin-2-yl)carbonyl]amino}cyclohexyl)nicotinamide] |
| 32.7 nM | CN1CCCC(C(=O)N[C@H]2CC[C@@H](NC(=O)c3ccc(-c4cccc(F)c4)nc3)CC2)C1 (relative stereo) [Example 219, 6-(3-fluorophenyl)-N-(cis-4-{[(1-methylpiperidin-3-yl)carbonyl]amino}cyclohexyl)nicotinamide] |
| 50.8 nM | CC(O)C(=O)N[C@H]1CC[C@@H](NC(=O)c2ccc(-c3cccc(F)c3)nc2)CC1 (relative stereo) [Example 222, 6-(3-fluorophenyl)-N-[cis-4-(lactoylamino)cyclohexyl]nicotinamide] |
| 13.8 nM | C[C@]1(C(=O)O)CCC[C@@H](NC(=O)c2ccc(-c3cccc(F)c3)nc2)C1 (relative stereo) [Example 231, (1S*,3R*)-3-({[6-(3-Fluorophenyl)pyridin-3-yl]carbonyl}amino)-1-methylcyclohexane carboxylic acid] |
| 4.1 nM | CCN1CCN(C(=O)[C@@]2(C)CCC[C@@H](NC(=O)c3ccc(-c4cccc(F)c4)nc3)C2)CC1 (relative stereo) [Example 233, N-{(1R*,3S*)-3-[(4-Ethylpiperazin-1-yl)carbonyl]-3-methylcyclohexyl}-6-(3-fluorophenyl)nicotinamide] |
| 5.1 nM | CN(C)C(=O)[C@@]1(C)CCC[C@@H](NC(=O)c2ccc(-c3cccc(F)c3)nc2)C1 (relative stereo) [Example 237, N-[(1R*,3S*)-3-(Dimethylcarbamoyl)-3-methylcyclohexyl]-6-(3-fluorophenyl)nicotinamide] |
| 27.4 nM | O=C(N[C@@H]1CCC[C@@H](C(=O)O)C1)c1ccc(-c2cccc(F)c2)nc1 (relative stereo) [Example 238A, trans-3-({[6-(3-Fluorophenyl)pyridin-3-yl]carbonyl}amino)cyclohexanecarboxylic acid] |

| IC50 | Compound |
| --- | --- |
| 47.1 nM | CN(C)C(=O)[C@@H]1CCC[C@@H](NC(=O)c2ccc(-c3cccc(F)c3)nc2)C1 (relative stereo) [Example 238] |
| 34.9 nM | O=C(N[C@@H]1CCC[C@@H](C(=O)N2CCCC2)C1)c1ccc(-c2cccc(F)c2)nc1 (relative stereo) [Example 239] |
| 26.5 nM | COCCNC(=O)[C@@H]1CCC[C@@H](NC(=O)c2ccc(-c3cccc(F)c3)nc2)C1 (relative stereo) [Example 240] |
| 15.4 nM | O=C(N[C@@H]1CCC[C@@H](C(=O)N2CCOCC2)C1)c1ccc(-c2cccc(F)c2)nc1 (relative stereo) [Example 241] |
| 19.8 nM | O=C(N[C@@H]1CCC[C@@H](C(=O)NCCCO)C1)c1ccc(-c2cccc(F)c2)nc1 (relative stereo) [Example 242] |
| 29.1 nM | O=C(N[C@@H]1CCC[C@@H](C(=O)N2CCNCC2)C1)c1ccc(-c2cccc(F)c2)nc1 (relative stereo) [Example 243] |
| 192 nM | N[C@H]1CCC[C@H](NC(=O)c2ccc(-c3cccc(F)c3)nc2)C1 (relative stereo) [Example 244, N-[trans-3-Aminocyclohexyl]-6-(3-fluorophenyl)nicotinamide] |
| 21.6 nM | O=C(CO)N[C@H]1CCC[C@H](NC(=O)c2ccc(-c3cccc(F)c3)nc2)C1 (relative stereo) [Example 245] |
| 57 nM | CN1CCN(CC(=O)N[C@H]2CCC[C@H](NC(=O)c3ccc(-c4cccc(F)c4)nc3)C2)CC1 (relative stereo) [Example 247] |
| 10.4 nM | CC(C)(O)C(=O)N[C@H]1CCC[C@H](NC(=O)c2ccc(-c3cccc(F)c3)nc2)C1 (relative stereo) [Example 248, 6-(3-Fluorophenyl)-N-trans-[3-(2-hydroxy-2-methylpropionylamino)cyclohexyl]nicotinamide] |
| 13.9 nM | CS(=O)(=O)N[C@H]1CCC[C@H](NC(=O)c2ccc(-c3cccc(F)c3)nc2)C1 (relative stereo) [Example 249, 6-(3-Fluoro-phenyl)-N-trans-(3-methanesulfonylamino-cyclohexyl)-nicotinamide] |
| 26.4 nM | O=C(N[C@H]1CCC[C@H](CO)C1)c1ccc(-c2cccc(F)c2)nc1 (relative stereo) [Example 250] |
| 13.3 nM | O=C(N[C@@H]1CCC[C@H](CO)C1)c1ccc(-c2cccc(F)c2)nc1 (relative stereo) [Example 251A] |
| 17.1 nM | COCC(=O)NC[C@H]1CCC[C@@H](NC(=O)c2ccc(-c3cccc(F)c3)nc2)C1 (relative stereo) [Example 252] |
| 50.9 nM | CN(C)CC(=O)NC[C@H]1CCC[C@@H](NC(=O)c2ccc(-c3cccc(F)c3)nc2)C1 (relative stereo) [Example 253] |
| 12.3 nM | Cn1nccc1C(=O)NC[C@H]1CCC[C@@H](NC(=O)c2ccc(-c3cccc(F)c3)nc2)C1 (relative stereo) [Example 255] |
| 34.5 nM | CC(=O)N1CC(NC[C@H]2CCC[C@@H](NC(=O)c3ccc(-c4cccc(F)c4)nc3)C2)C1 (relative stereo) [Example 257] |
| 29.2 nM | O=C(N[C@@H]1CCC[C@H](CN2CCC2)C1)c1ccc(-c2cccc(F)c2)nc1 (relative stereo) [Example 258] |
| 81 nM | CC(C)(O)[C@@H]1CCC[C@H](NC(=O)c2ccc(-c3cccc(F)c3)nc2)C1 (relative stereo) [Example 262] |

| Compound | IC50 |
| --- | --- |
| 6-(3-Fluorophenyl)-N-(cis-2-hydroxy-2,3-dihydro-1H-inden-1yl]nicotinamide [Example 130] | 15.2 nM |
